Source: patent US20250205316A1, “COLLOIDAL FIBRIN NANOPARTICLE COMPOSITIONS AND USES” (NORTH CAROLINA STATE UNIVERSITY, priority 2023, published 2025)
Read-outs that look alike come from different tables or passages of the source.

Assays:
[1] = system: HUVECs and HLFs; assay: Microfluidic vasculogenesis assay with free tazarotene; type: cell-based, human
Description: The effects of tazarotene dosage on vascular network formation were investigated through the use of an established microfluidic vasculogenesis model (FIG. 12A). HUVECs and HLFs were embedded in 2 mg/mL human fibrin gels made 25 mM HEPES buffer and 0.5 U/mL thrombin. Media channels in the microdevice (FIG. 12A) were filled with HUVEC media supplemented with free tazarotene. Daily media changes and brightfield imaging were completed until cells were fixed with 4% paraformaldehyde at 1 week after seeding. Cells were permeabilized with 0.3% Triton X-100 (Sigma), immunostained with PEKAM-1 antibody (ThermoFisher), and stained with phalloidin (Invitrogen) and DAPI (Invitrogen) in order to visualize networks of both HUVECs and HLFs. Imaging was performed using a confocal microscope with a 10× objective. At least 3 devices were imaged for each experimental group and 3 images were taken per device. ImageJ was used to quantify vascular network characteristics (average segment length, average segment width, average number of branch points, and total endothelial area).

[2] = system: HUVECs; assay: HUVEC morphology and attachment on tazarotene-loaded thin films; type: cell-based, human
Description: The effects of tazarotene released from bulk fibrin gels on individual cellular morphology was determined through the low-density culture of HUVECs on thin films of loaded fibrin gels. Fibrin gels with varying concentrations of bulk tazarotene incorporated were allowed to polymerize between two clean glass coverslips for 1 hour, in order to form thin films. Thin films of 80 μL were made using 2 mg/ml human fibrinogen (Enzyme Research Laboratories), HEPES buffer (25 mM), and 0.5 U/ml human thrombin. Upon removal of one glass coverslip, the remaining glass and attached gel were placed within the well of a 12-well plate and rinsed with PBS. HUVECs (15,000 cells/well) were cultured for 16 hours, at which point they were fixed and stained. Images of cells were captured at 10× using an EVOS FL Auto Imaging System, with at least 5 images taken per thin film. In order to validate the nanoparticle release of tazarotene from FBNs, 80 μL FBN gel (330 M particles/mL) thin films were formed with different relative ratios of tazarotene-loaded to unloaded FBNs. All other elements of the procedure were the same.

[3] = fibrin gel thin films bulk loaded with tazarotene, 16 hours

## CCOC(=O)c1ccc(C#Cc2ccc3c(c2)C(C)(C)CCS3)nc1 [tazarotene]
[1]
  average network segment width: 36±11 μm
[1]; 20 nM free tazarotene, 1 week
  average segment length: 218±54 μm
[1]; 2 μM free tazarotene, 1 week
  average network segment width: 23±4 μm
  average segment length: 226±40 μm
  endothelial network area: 130167±61886 μm^2
[1]; 20 μM free tazarotene, 1 week
  endothelial network area: 206,763±51,803 μm^2
[1]; 200 μM free tazarotene, 1 week
  average network segment width: 31±7 μm
  endothelial network area: 240,770±44,210 μm^2
[1]; 2000 μM free tazarotene, 1 week
  endothelial network area: 230,087±51,803 μm^2
[1]; across tazarotene concentrations
  branch points: No significant differences
[2]; [3]
  concentration with the most cell spreading: 200 nM
  effect on cellular attachment: no significant effect
[2]; with increasing concentrations
  cell circularity: less circularity
  cell perimeter: greater perimeter
